{"source": "patent US9951049B2", "about": "“Pyrazole linked benzimidazole conjugates and a process for preparation thereof” (Council of Scientific & Industrial Reseach, priority 2014, dated 2018)", "key": {"HL-60(TB)": {"tested_on": "HL-60(TB)", "assay": "NCI SRB screen, HL-60(TB)", "format": "cell-based", "conditions": "Homo sapiens, Leukemia, 48 h"}, "HT29": {"tested_on": "HT29", "assay": "NCI SRB screen, HT29", "conditions": "Homo sapiens, HT-29, 48 h, read-out: GI50 values"}, "KM12": {"tested_on": "KM12", "assay": "NCI SRB screen, KM12", "conditions": "Homo sapiens, KM12, 48 h, read-out: GI50 values"}, "A498": {"tested_on": "A498", "assay": "NCI SRB screen, A498", "conditions": "Homo sapiens, A498, 48 h, read-out: GI50 values"}, "ACHN": {"tested_on": "ACHN", "assay": "NCI SRB screen, ACHN", "conditions": "Homo sapiens, 48 h, read-out: GI50 values"}, "K-562": {"tested_on": "K-562", "assay": "NCI SRB screen, K-562", "conditions": "Homo sapiens, K562, 48 h, read-out: GI50 values"}, "SN12C": {"tested_on": "SN12C", "assay": "NCI SRB screen, SN12C", "conditions": "Homo sapiens, 48 h, read-out: GI50 values"}, "UO-31": {"tested_on": "UO-31", "assay": "NCI SRB screen, UO-31", "conditions": "Homo sapiens, UO-31, 48 h, read-out: GI50 values"}, "MOLT-4": {"tested_on": "MOLT-4", "assay": "NCI SRB screen, MOLT-4", "conditions": "Homo sapiens, MOLT-4, 48 h, read-out: GI50 values"}, "HOP-62": {"tested_on": "HOP-62", "assay": "NCI SRB screen, HOP-62", "conditions": "Homo sapiens, HOP-62, 48 h, read-out: GI50 values"}, "SW-620": {"tested_on": "SW-620", "assay": "NCI SRB screen, SW-620", "conditions": "Homo sapiens, SW-620, 48 h, read-out: GI50 values"}, "SF-295": {"tested_on": "SF-295", "assay": "NCI SRB screen, SF-295", "conditions": "Homo sapiens, SF-295, 48 h, read-out: GI50 values"}, "SF-539": {"tested_on": "SF-539", "assay": "NCI SRB screen, SF-539", "conditions": "Homo sapiens, 48 h, read-out: GI50 values"}, "IGROV1": {"tested_on": "IGROV1", "assay": "NCI SRB screen, IGROV1", "conditions": "Homo sapiens, IGROV-1, 48 h, read-out: GI50 values"}, "CAKI-1": {"tested_on": "CAKI-1", "assay": "NCI SRB screen, CAKI-1", "conditions": "Homo sapiens, CAKI-1, 48 h, read-out: GI50 values"}, "DU-145": {"tested_on": "DU-145", "assay": "NCI SRB screen, DU-145", "conditions": "Homo sapiens, DU-145, 48 h, read-out: GI50 values"}, "BT-549": {"tested_on": "BT-549", "assay": "NCI SRB screen, BT-549", "conditions": "Homo sapiens, BT-549, 48 h, read-out: GI50 values"}, "NCI-H23": {"tested_on": "NCI-H23", "assay": "NCI SRB screen, NCI-H23", "conditions": "Homo sapiens, NCI-H23, 48 h, read-out: GI50 values"}, "OVCAR-3": {"tested_on": "OVCAR-3", "assay": "NCI SRB screen, OVCAR-3", "conditions": "Homo sapiens, OVCAR-3, 48 h, read-out: GI50 values"}, "OVCAR-4": {"tested_on": "OVCAR-4", "assay": "NCI SRB screen, OVCAR-4", "conditions": "Homo sapiens, OVCAR-4, 48 h, read-out: GI50 values"}, "OVCAR-5": {"tested_on": "OVCAR-5", "assay": "NCI SRB screen, OVCAR-5", "conditions": "Homo sapiens, OVCAR-5, 48 h, read-out: GI50 values"}, "RXF 393": {"tested_on": "RXF 393", "assay": "NCI SRB screen, RXF 393", "conditions": "Homo sapiens, RXF 393, 48 h, read-out: GI50 values"}, "HS 578T": {"tested_on": "HS 578T", "assay": "NCI SRB screen, HS 578T", "conditions": "Homo sapiens, 48 h, read-out: GI50 values"}, "CCRF-CEM": {"tested_on": "CCRF-CEM", "assay": "NCI SRB screen, CCRF-CEM", "conditions": "Homo sapiens, 48 h, read-out: GI50 values"}, "NCI-H460": {"tested_on": "NCI-H460", "assay": "NCI SRB screen, NCI-H460", "conditions": "Homo sapiens, NCI-H460, 48 h, read-out: GI50 values"}, "COLO-205": {"tested_on": "COLO-205", "assay": "NCI SRB screen, COLO-205", "conditions": "Homo sapiens, COLO 205, 48 h, read-out: GI50 values"}, "HCC-2998": {"tested_on": "HCC-2998", "assay": "NCI SRB screen, HCC-2998", "conditions": "Homo sapiens, HCC 2998, 48 h, read-out: GI50 values"}, "A549/ATCC": {"tested_on": "A549/ATCC", "assay": "NCI SRB screen, A549/ATCC", "conditions": "Homo sapiens, A549, 48 h, read-out: GI50 values"}, "SK-MEL-28": {"tested_on": "SK-MEL-28", "assay": "NCI SRB screen, SK-MEL-28", "conditions": "Homo sapiens, SK-MEL-28, 48 h, read-out: GI50 values"}, "MDA-MB-231/ATCC": {"tested_on": "MDA-MB-231/ATCC", "assay": "NCI SRB screen, MDA-MB-231/ATCC", "conditions": "Homo sapiens, MDA-MB-231, 48 h, read-out: GI50 values"}, "CNS cancer cell lines": {"tested_on": "CNS cancer cell lines", "assay": "NCI SRB screen, CNS panel average", "conditions": "Homo sapiens, 48 h, read-out: Log10 GI50 (converted)"}, "[1]": {"tested_on": "Prostate cancer cell lines", "assay": "NCI SRB screen, Prostate panel average", "conditions": "Homo sapiens, 48 h, read-out: Log10 GI50 (converted)"}, "Breast Cancer cell lines": {"tested_on": "Breast Cancer cell lines", "assay": "NCI SRB screen, Breast Cancer panel average", "conditions": "Homo sapiens, 48 h, read-out: Log10 GI50 (converted)"}, "[2]": {"tested_on": "Non-small-cell lung cancer cell lines", "assay": "NCI SRB screen, Non-small-cell lung panel average", "conditions": "Homo sapiens, 48 h, read-out: Log10 GI50 (converted)"}}, "data": [{"compound": "COc1cc(-c2cc(-c3nc4cc(Cl)c(Cl)cc4[nH]3)[nH]n2)cc(OC)c1OC", "note": "[10f, 5,6-dichloro-2-(3-(3,4,5-trimethoxyphenyl)-1H-pyrazol-5-yl)-1H-benzo[d]imidazole]", "values": [{"measurement": "GI50", "setting": "HL-60(TB)", "value": 3.34, "unit": "µM"}, {"measurement": "GI50", "setting": "HT29", "value": 3.42, "unit": "µM"}, {"measurement": "GI50", "setting": "KM12", "value": 3.56, "unit": "µM"}, {"measurement": "GI50", "setting": "A498", "value": 4.21, "unit": "µM"}, {"measurement": "GI50", "setting": "ACHN", "value": 3.54, "unit": "µM"}, {"measurement": "GI50", "setting": "K-562", "value": 3.3, "unit": "µM"}, {"measurement": "GI50", "setting": "SN12C", "value": 3.05, "unit": "µM"}, {"measurement": "GI50", "setting": "UO-31", "value": 2.47, "unit": "µM"}, {"measurement": "GI50", "setting": "MOLT-4", "value": 2.49, "unit": "µM"}, {"measurement": "GI50", "setting": "HOP-62", "value": 3.43, "unit": "µM"}, {"measurement": "GI50", "setting": "SW-620", "value": 4.47, "unit": "µM"}, {"measurement": "GI50", "setting": "SF-295", "value": 3.04, "unit": "µM"}, {"measurement": "GI50", "setting": "SF-539", "value": 3.28, "unit": "µM"}, {"measurement": "GI50", "setting": "IGROV1", "value": 3.86, "unit": "µM"}, {"measurement": "GI50", "setting": "CAKI-1", "value": 3.81, "unit": "µM"}, {"measurement": "GI50", "setting": "DU-145", "value": 4.16, "unit": "µM"}, {"measurement": "GI50", "setting": "BT-549", "value": 2.84, "unit": "µM"}, {"measurement": "GI50", "setting": "NCI-H23", "value": 3.4, "unit": "µM"}, {"measurement": "GI50", "setting": "OVCAR-3", "value": 4.05, "unit": "µM"}, {"measurement": "GI50", "setting": "OVCAR-4", "value": 2.21, "unit": "µM"}, {"measurement": "GI50", "setting": "OVCAR-5", "value": 7.08, "unit": "µM"}, {"measurement": "GI50", "setting": "RXF 393", "value": 3.17, "unit": "µM"}, {"measurement": "GI50", "setting": "HS 578T", "value": 4.53, "unit": "µM"}, {"measurement": "GI50", "setting": "CCRF-CEM", "value": 2.35, "unit": "µM"}, {"measurement": "GI50", "setting": "NCI-H460", "value": 3.33, "unit": "µM"}, {"measurement": "GI50", "setting": "COLO-205", "value": 3.77, "unit": "µM"}, {"measurement": "GI50", "setting": "HCC-2998", "value": 4.47, "unit": "µM"}, {"measurement": "GI50", "setting": "A549/ATCC", "value": 2.87, "unit": "µM"}, {"measurement": "GI50", "setting": "SK-MEL-28", "value": 3.07, "unit": "µM"}, {"measurement": "GI50", "setting": "MDA-MB-231/ATCC", "value": 4.14, "unit": "µM"}, {"measurement": "GI50", "setting": "CNS cancer cell lines", "value": 3.55, "unit": "µM"}, {"measurement": "GI50", "setting": "[1]", "value": 3.02, "unit": "µM"}, {"measurement": "GI50", "setting": "Breast Cancer cell lines", "value": 3.16, "unit": "µM"}, {"measurement": "GI50", "setting": "[2]", "value": 2.95, "unit": "µM"}]}]}
